In patent publication US20240336559A1, “ANTI-FUNGALS COMPOUNDS TARGETING THE SYNTHESIS OF FUNGAL SPHINGOLIPIDS” (The Research Foundation for the State University of New York, priority 2021, published 2024) one finds MIC80 and melting point data, which are given here for 27 compounds.

Each structure is given as a SMILES string. ≈ marks a conversion by molar mass, not a printed value. Read-outs that look alike come from different tables or passages of the source. A value given as a limit tells only on which side of the number the result lay.

The MIC80 is the lowest concentration that inhibits either 80% of growth or 80% of the strains tested, depending on the study. One may read the melting point as the temperature of the solid-liquid transition.

One data set deals with A. fumigatus. As to the kind of experiment: Antifungal activity assay (MIC80), A. fumigatus. Type of data set: cell-based. To be noted: Aspergillus fumigatus; lowest concentration inhibiting 80% of growth; RPMI pH 7.0, 37° C., 5% CO2, 24 to 72 h. Here is the method:
(§1) MICs were determined following the methods of the Clinical and Laboratory Standards Institutes (CLSI) with modifications. Yeast nitrogen base (YNB) medium without amino acid (pH 7.0, 2% glucose) buffered with (4-(2-hydroxyethyl)-1-piperazineethanesulfonic acid) (HEPES) was used for MIC studies in C. neoformans. YNB medium without ammonium sulfate, without amino acid and 1% asparagine (pH 7.0, 2% glucose) was used for MIC studies in Candida strains. RPMI medium (pH 7.0, 2% glucose) was used for MIC studies in A. fumigatus. […] The compounds were serially diluted from 32 to 0.03 μg/mL, in a 96-well plate. The inoculum was prepared as described in the CLSI protocol M27A3 guidelines. The plates were incubated at 37° C. with 5% CO2 for 24 to 72 h and the optical density was measure at 450 nm. The MICs were determined as the lowest concentration of the compound that inhibited 80% of growth compared to the control.

Another data set has as its system C. albicans. The data set is described as follows: Antifungal activity assay (MIC80), C. albicans. To be noted: Candida albicans; lowest concentration inhibiting 80% of growth; YNB pH 7.0, 37° C., 5% CO2, 24 to 72 h. Type of data set: cell-based. Here is the method: as §1
The subject of the next data set is C. neoformans. As to the kind of experiment: Antifungal activity assay (MIC80), C. neoformans. The class given is cell-based. Particulars: Cryptococcus neoformans. Here is the method:
as §1
MICs was determined following the methods of the Clinical and Laboratory Standards Institutes (CLSI) with modifications. Yeast Nitrogen Base (YNB) medium (pH 7.0, 0.2% glucose) buffered with HEPES was used for MIC studies. […] The compound was serially diluted from 16 to 0.03 μg/ml, in a 96-well plate. The inoculum was prepared as described in the CLSI protocol M27A3 guidelines. The plates were incubated at 37° C. with 5% CO2 for 24 to 72 h and the optical density was measure at 450 nm. The MICs was determined as the lowest concentration of the compound that inhibited 80% of growth compared to the control.

Setting [1] is: lowest concentration inhibiting 80% of growth, YNB pH 7.0 HEPES, 37° C., 5% CO2, 24 to 72 h, read-out: MIC80 C. neoformans.

Turning to `C#Cc1ccc(O)c(/C=N/NC(=O)c2ccc(Br)cc2Br)c1` [SB-AF-08-23, 2,4-Dibromo-N′-(5-ethynyl-2-hydroxybenzylidene)benzohydrazide], the MIC80 in the data set with A. fumigatus was 2 µg/mL (≈ 4.74 µM); with C. albicans it was no more than 0.01 µg/mL; in the data set with C. neoformans (setting [1]), 0.03 µg/mL (≈ 0.0711 µM).
Take `C#Cc1cccc(O)c1/C=N/NC(=O)c1ccc(Br)cc1Br` [SB-AF-08-29, 2,4-Dibromo-N′-(2-ethynyl-6-hydroxybenzylidene)benzohydrazide]: the MIC80 in the data set with A. fumigatus was greater than 32 µg/mL; against C. albicans, 0.5 µg/mL (≈ 1.18 µM); in the data set on C. neoformans (setting [1]) it was 0.031 µg/mL (≈ 0.0734 µM).
As for `C#Cc1ccc(O)c(/C=N/NC(=O)c2ccc(Br)cc2)c1` [SB-AF-10-23, 4-Bromo-N′-(5-ethynyl-2-hydroxybenzylidene) benzohydrazide], the MIC80 in the data set with A. fumigatus is 2 µg/mL (≈ 5.83 µM); against C. albicans, 0.06 µg/mL (≈ 0.175 µM); with C. neoformans (setting [1]), 0.007 µg/mL (≈ 0.0204 µM).
The like results for `C#Cc1ccc(/C=N/NC(=O)c2ccc(Br)cc2)c(O)c1` [SB-AF-10-27, 4-Bromo-N′-(4-ethynyl-2-hydroxybenzylidene)benzohydrazide] were, in that order, greater than 16 µg/mL, 4 µg/mL (≈ 11.7 µM) and 0.03 µg/mL (≈ 0.0874 µM).
Consider `C#Cc1cccc(/C=N/NC(=O)c2ccc(Br)cc2)c1O` [SB-AF-10-28, 4-Bromo-N′-(3-ethynyl-2-hydroxybenzylidene)benzohydrazide], for which the MIC80 amounted to 4 µg/mL (≈ 11.7 µM) against A. fumigatus, 2 µg/mL (≈ 5.83 µM) against C. albicans and 0.007 µg/mL (≈ 0.0204 µM) with C. neoformans (setting [1]).
For the compound `C#Cc1cccc(O)c1/C=N/NC(=O)c1ccc(Br)cc1` [SB-AF-10-29, 4-Bromo-N-(2-ethynyl-6-hydroxybenzylidene)benzohydrazide], the MIC80 against A. fumigatus was greater than 32 µg/mL; with C. albicans, 8 µg/mL (≈ 23.3 µM); in the data set on C. neoformans (pH 7, read-out: MIC80 C. neoformans) it was 0.125 µg/mL (≈ 0.364 µM).
As for `C#Cc1ccc(O)c(/C=N/NC(=O)c2cc(Br)cc(Br)c2O)c1` [SB-AF-12-23, 2-Hydroxy-3,5-dibromo-N-(5-ethynyl-2-hydroxybenzylidene)benzohydrazide], the MIC80 amounted to 4 µg/mL (≈ 9.13 µM) with A. fumigatus, 0.12 µg/mL (≈ 0.274 µM) against C. albicans and 0.03 µg/mL (≈ 0.0685 µM) with C. neoformans (setting [1]).
Consider `C#Cc1ccc(/C=N/NC(=O)c2cc(Br)cc(Br)c2O)c(O)c1` [SB-AF-12-27, 3,5-Dibromo-N′-(4-ethynyl-2-hydroxybenzylidene)-2-hydroxybenzohydrazide], for which the MIC80 with A. fumigatus is greater than 16 µg/mL; in the data set on C. albicans, 2 µg/mL (≈ 4.57 µM); in the data set on C. neoformans (setting [1]) it was 0.03 µg/mL (≈ 0.0685 µM).
The like results for `C#Cc1ccc(O)c(/C=N/NC(=O)c2ccc(Br)c(Br)c2)c1` [SB-AF-13-23, 3,4-Dibromo-N′-(5-ethynyl-2-hydroxybenzylidene)benzohydrazide] were, in that order, 2 µg/mL (≈ 4.74 µM), 0.5 µg/mL (≈ 1.18 µM) and 0.06 µg/mL (≈ 0.142 µM).
`C#Cc1ccc(/C=N/NC(=O)c2ccc(Br)c(Br)c2)c(O)c1` [SB-AF-13-27, 3,4-Dibromo-N′-(4-ethynyl-2-hydroxybenzylidene)benzohydrazide]: the values for the MIC80 against A. fumigatus, with C. albicans and in the data set with C. neoformans (setting [1]) were greater than 16 µg/mL, 8 µg/mL (≈ 19 µM) and 0.007 µg/mL (≈ 0.0166 µM), respectively.
`C#Cc1cccc(/C=N/NC(=O)c2ccc(Br)c(Br)c2)c1O` [SB-AF-13-28, 3,4-Dibromo-N′-(3-ethynyl-2-hydroxybenzylidene)benzohydrazide]: the MIC80 in the data set on A. fumigatus worked out at 1 µg/mL (≈ 2.37 µM); against C. albicans, 4 µg/mL (≈ 9.48 µM); with C. neoformans (setting [1]), 0.015 µg/mL (≈ 0.0355 µM).
The like results for `C#Cc1cccc(O)c1/C=N/NC(=O)c1ccc(Br)c(Br)c1` [SB-AF-13-29, 3,4-Dibromo-N′-(2-ethynyl-6-hydroxybenzylidene)benzohydrazide] were, in that order, 8 µg/mL (≈ 19 µM), 16 µg/mL (≈ 37.9 µM) and 0.06 µg/mL (≈ 0.142 µM).
For the compound `C#Cc1ccc(O)c(/C=N/NC(=O)c2ccc(OC(F)(F)F)cc2F)c1` [SB-AF-25-23, 2-Fluoro-4-(trifluoromethoxy)-N-(5-ethynyl-2-hydroxybenzylidene)benzohydrazide], in the data set on C. neoformans (setting [1]), the MIC80 amounted to 4 µg/mL (≈ 10.9 µM).
Regarding `C#Cc1ccc(C(=O)N/N=C/c2ccc(C#C)cc2O)cc1` [SB-AF-36-27, 4-Ethynyl-N′-(4-ethynyl-2-hydroxybenzylidene)benzohydrazide], the MIC80 was greater than 16 µg/mL against A. fumigatus, 16 µg/mL (≈ 55.5 µM) with C. albicans and 0.007 µg/mL (≈ 0.0243 µM) with C. neoformans (setting [1]).
Compound `COCc1ccc(C(=O)N/N=C/c2ccc(Br)cc2O)cc1` [SB-AF-39-13, 4-Methoxymethyl-N′-(4-bromo-2-hydroxybenzylidene)benzohydrazide] registered a melting point of 198 to 199 °C.
`COCc1ccc(C(=O)N/N=C/c2cc(Br)ccc2O)cc1` [SB-AF-39-15, 4-Methoxymethyl-N′-(5-bromo-2-hydroxybenzylidene)benzohydrazide] displayed a melting point of 188 to 189 °C.
Still for that read-out and setting: the value for `COCc1ccc(C(=O)N/N=C/c2cccc(Br)c2O)cc1` [SB-AF-39-22, 4-Methoxymethyl-N′-(3-bromo-2-hydroxybenzylidene)benzohydrazide] was 187 to 188 °C.
As for `C#Cc1ccc(O)c(/C=N/NC(=O)c2ccc(COC)cc2)c1` [SB-AF-39-23, 4-Methoxymethyl-N′-(5-ethynyl-2-hydroxybenzylidene)benzohydrazide], the MIC80 with C. neoformans (setting [1]) worked out at 0.25 µg/mL (≈ 0.811 µM).
Regarding `CCOCc1ccc(C(=O)N/N=C/c2cc(Br)cc(Br)c2O)cc1` [SB-AF-40-17, 4-Ethoxymethyl-N′-(3,5-dibromo-2-hydroxybenzylidene)benzohydrazide], the melting point is 205 to 207 °C.
As to `CCOCc1ccc(C(=O)N/N=C/c2cccc(Br)c2O)cc1` [SB-AF-40-22, 4-Ethoxymethyl-N′-(3-bromo-2-hydroxybenzylidene)benzohydrazide], the melting point is 176 to 177 °C.
Regarding `C#Cc1ccc(/C=N/NC(=O)c2ccc(COCC)cc2)c(O)c1` [SB-AF-40-27, 4-(Ethoxymethyl)-N′-(4-ethynyl-2-hydroxybenzylidene)benzohydrazide], the MIC80 amounted to 8 µg/mL (≈ 24.8 µM) against C. albicans and 0.031 µg/mL (≈ 0.0962 µM) in the data set on C. neoformans (setting [1]).
`CC(C)OCc1ccc(C(=O)N/N=C/c2ccc(Br)cc2O)cc1` [SB-AF-41-13, 4-Isopropoxymethyl-N′-(4-bromo-2-hydroxybenzylidene)benzohydrazide]: the melting point was 193 to 195 °C.
`CC(C)OCc1ccc(C(=O)N/N=C/c2cc(Br)ccc2O)cc1` [SB-AF-41-15, 4-Isopropoxymethyl-N′-(5-bromo-2-hydroxybenzylidene)benzohydrazide] had a melting point of 179 to 181 °C.
`C#Cc1ccc(/C=N/NC(=O)c2ccc(COC(C)C)cc2)c(O)c1` [SB-AF-41-27, N′-(4-Ethynyl-2-hydroxybenzylidene)-4-(isopropoxymethyl)benzohydrazide]: the MIC80 was greater than 16 µg/mL in the data set with C. albicans and no more than 0.015 µg/mL in the data set on C. neoformans (setting [1]).
Take `C#Cc1ccc(O)c(/C=N/NC(=O)c2ccc(C3(C(F)(F)F)N=N3)cc2)c1` [SB-AF-43-23, 4-(3-(Trifluoromethyl)-3H-diazirin-3-yl)-N′-(5-ethynyl-2-hydroxybenzylidene) benzohydrazide]: the results for the MIC80 against A. fumigatus, with C. albicans and in the data set with C. neoformans (setting [1]) were 1 µg/mL (≈ 2.69 µM), 1 µg/mL (≈ 2.69 µM) and 0.007 µg/mL (≈ 0.0188 µM), respectively.
Take `C#Cc1ccc(/C=N/NC(=O)c2ccc(COCCC)cc2)c(O)c1` [SB-AF-44-27, N′-(4-Ethynyl-2-hydroxybenzylidene)-4-(propoxymethyl)benzohydrazide]: the MIC80 is greater than 16 µg/mL against C. albicans and 0.25 µg/mL (≈ 0.743 µM) in the data set on C. neoformans (setting [1]).
With `C#Cc1ccc(/C=N/NC(=O)c2ccc(Br)c(O)c2)c(O)c1` [SB-AF-46-27, 4-Bromo-N′-(4-ethynyl-2-hydroxybenzylidene)-3-hydroxybenzohydrazide], the MIC80 was greater than 32 µg/mL in the data set with A. fumigatus, greater than 16 µg/mL with C. albicans and 1 µg/mL (≈ 2.78 µM) in the data set with C. neoformans (setting [1]).
